Source: paper PMC10537087, “Evaluating Known Zika Virus NS2B-NS3 Protease Inhibitor Scaffolds via In Silico Screening and Biochemical Assays” (Pharmaceuticals, 2023)

tested on: not listed separately; assay: Cytotoxicity MTT assay (CC50); settings: African green monkey, Vero (ATCC CCL-81) cells
Protocol: (§1) The Vero (ATCC® CCL-81™) cell line was used for the cytotoxicity assays and antiviral activity evaluation against ZIKV. Cells were cultured in Eagle’s minimum essential media (MEM) (Cultilab, Campinas, Brazil). The media was supplemented with 5% fetal bovine serum (FBS) (Cultilab, Brazil), in addition to 100 IU/mL penicillin (Cellofarm, Rio De Janeiro, Brazil), 100 μg/mL streptomycin (Merck, Darmstadt, Germany), and 0.25 μg/mL amphotericin B (Cultilab, Brazil).
(§2) Cells were seeded in 96-well microplates (4.0 × 10^4 cells per well) and incubated at 37 °C and 5% CO2 for 24 h. Then, 200 µL of MEM with 1% FBS containing a serial dilution of the compounds (100 to 12.5 µM) was added. As vehicle control, a serial dilution of DMSO was used. After 72 h of incubation under the same conditions, 100 μL of 3-(4,5-dimethylthiazol-2-yl)-2,5-diphenyltetrazolium bromide (MTT; ThermoFischer Scientific, Waltham, MA, USA) [76] diluted in MEM (0.5 mg/mL) was added to each well and incubated for 3 h. The media was removed, and 100 μL of DMSO was added to each well to solubilize formazan crystals and shaken for 20 min. The absorbance was read at 570 nm using a spectrophotometer (VersaMax, Molecular Devices, San Jose, CA, USA). The percentages of inhibition of cell viability were calculated as the ratio between the absorbance of the compound-treated cells and cells with only the vehicle. […] Linear regression (LR) was used for the analysis, considering results with r^2 > 0.9. All conditions were tested in triplicate and one independent assay (n = 3 data points).

| Compound | CC50 at 72 h |
| --- | --- |
| O=C(Nc1nc2cnccc2[nH]1)c1ccccc1NS(=O)(=O)c1ccc(F)cc1 [Compound 3] | 120 ± 3.68 µM |
| Cc1ccc(S(=O)(=O)Nc2ccccc2C(=O)Nc2nc3ccccc3[nH]2)cc1 [Compound 7] | 32.8 ± 1.55 µM |
| COc1cccc2sc(NC(=O)c3ccccc3CS(=O)(=O)c3ccccc3)nc12 [Compound 8] | 23.6 ± 1 µM |
| COc1cccc2nc(C(=O)c3ccccc3NS(=O)(=O)c3ccc(F)c(C)c3)[nH]c12 [Compound 12] | < 12.5 µM |

tested on: Vero (ATCC CCL-81) cell line; assay: Cytotoxicity MTT assay (CC50); settings: Vero cells; compound 12.5 µM
Protocol: as §1, §2

| Compound | Cell viability as percentage of cell control (mean absorbance / CELL) |
| --- | --- |
| O=C(Nc1nc2cnccc2[nH]1)c1ccccc1NS(=O)(=O)c1ccc(F)cc1 [Compound 3] | 86.7535 |
| Cc1ccc(S(=O)(=O)Nc2ccccc2C(=O)Nc2nc3ccccc3[nH]2)cc1 [Compound 7] | 64.4267 |
| COc1cccc2sc(NC(=O)c3ccccc3CS(=O)(=O)c3ccccc3)nc12 [Compound 8] | 57.338 |
| COc1cccc2nc(C(=O)c3ccccc3NS(=O)(=O)c3ccc(F)c(C)c3)[nH]c12 [Compound 12] | 28.1944 |

same assay, conditions: Vero cells; compound 25 µM

| Compound | Cell viability as percentage of cell control (mean absorbance / CELL) |
| --- | --- |
| O=C(Nc1nc2cnccc2[nH]1)c1ccccc1NS(=O)(=O)c1ccc(F)cc1 [Compound 3] | 77.5537 |
| Cc1ccc(S(=O)(=O)Nc2ccccc2C(=O)Nc2nc3ccccc3[nH]2)cc1 [Compound 7] | 53.8262 |
| COc1cccc2sc(NC(=O)c3ccccc3CS(=O)(=O)c3ccccc3)nc12 [Compound 8] | 54.3981 |
| COc1cccc2nc(C(=O)c3ccccc3NS(=O)(=O)c3ccc(F)c(C)c3)[nH]c12 [Compound 12] | 14.2593 |

same assay, conditions: Vero cells; compound 50 µM

| Compound | Cell viability as percentage of cell control (mean absorbance / CELL) |
| --- | --- |
| O=C(Nc1nc2cnccc2[nH]1)c1ccccc1NS(=O)(=O)c1ccc(F)cc1 [Compound 3] | 72.6654 |
| Cc1ccc(S(=O)(=O)Nc2ccccc2C(=O)Nc2nc3ccccc3[nH]2)cc1 [Compound 7] | 38.9416 |
| COc1cccc2sc(NC(=O)c3ccccc3CS(=O)(=O)c3ccccc3)nc12 [Compound 8] | 21.2269 |
| COc1cccc2nc(C(=O)c3ccccc3NS(=O)(=O)c3ccc(F)c(C)c3)[nH]c12 [Compound 12] | 9.861 |

same assay, conditions: Vero cells; compound 100 µM

| Compound | Cell viability as percentage of cell control (mean absorbance / CELL) |
| --- | --- |
| O=C(Nc1nc2cnccc2[nH]1)c1ccccc1NS(=O)(=O)c1ccc(F)cc1 [Compound 3] | 56.6548 |
| Cc1ccc(S(=O)(=O)Nc2ccccc2C(=O)Nc2nc3ccccc3[nH]2)cc1 [Compound 7] | 40.3696 |
| COc1cccc2sc(NC(=O)c3ccccc3CS(=O)(=O)c3ccccc3)nc12 [Compound 8] | 17.0602 |
| COc1cccc2nc(C(=O)c3ccccc3NS(=O)(=O)c3ccc(F)c(C)c3)[nH]c12 [Compound 12] | 10 |

biological target: T1, ZIKV NS2B-NS3pro (Zika virus, UniProt A0A024B7W1, C1582S/C1645S/R1467A/R1531G); assay: ZIKV NS2B-NS3pro inhibitory assay with fluorogenic substrate Bz-Nle-Lys-Lys-Arg-AMC; type: biochemical; settings: 0.005% Tween-20; enzyme 0.2 nM; substrate 44 µM; read-out: ZIKV NS2B/NS3pro IC50

| Compound | IC50 |
| --- | --- |
| COc1cccc2nc(C(=O)c3ccccc3NS(=O)(=O)c3ccc(F)c(C)c3)[nH]c12 [Compound 12] | 5 ± 1 µM |

same assay, conditions: compound 10 µM (close to IC50); CHAPS 1 mM; enzyme 0.2 nM

| Compound | % ZIKV NS2B/NS3pro Inhibition [Enzyme] = 0.2 nM |
| --- | --- |
| COc1cccc2nc(C(=O)c3ccccc3NS(=O)(=O)c3ccc(F)c(C)c3)[nH]c12 [Compound 12] | 94 ± 0.06% |

same assay, conditions: compound 10 µM (close to IC50); CHAPS 1 mM; enzyme 2 nM

| Compound | % ZIKV NS2B/NS3pro Inhibition [Enzyme] = 2 nM |
| --- | --- |
| COc1cccc2nc(C(=O)c3ccccc3NS(=O)(=O)c3ccc(F)c(C)c3)[nH]c12 [Compound 12] | 30 ± 10% |

same assay, conditions: compound 25 µM (close to IC50); CHAPS 1 mM; enzyme 0.2 nM

| Compound | % ZIKV NS2B/NS3pro Inhibition [Enzyme] = 0.2 nM |
| --- | --- |
| Cc1ccc(S(=O)(=O)Nc2ccccc2C(=O)Nc2nc3ccccc3[nH]2)cc1 [Compound 7] | 87 ± 0.04% |

same assay, conditions: compound 25 µM (close to IC50); CHAPS 1 mM; enzyme 2 nM

| Compound | % ZIKV NS2B/NS3pro Inhibition [Enzyme] = 2 nM |
| --- | --- |
| Cc1ccc(S(=O)(=O)Nc2ccccc2C(=O)Nc2nc3ccccc3[nH]2)cc1 [Compound 7] | 27 ± 6% |

same assay, conditions: compound 100 µM; 0.001% Triton X-100, no Tween-20; 10 min preincubation

| Compound | % ZIKV NS2B/NS3pro Inhibition (100 µM) 0.001% Triton |
| --- | --- |
| Cc1ccc(S(=O)(=O)Nc2ccccc2C(=O)Nc2nc3ccccc3[nH]2)cc1 [Compound 7] | 88 ± 5% |
| COc1cccc2nc(C(=O)c3ccccc3NS(=O)(=O)c3ccc(F)c(C)c3)[nH]c12 [Compound 12] | 90 ± 5% |

same assay, conditions: compound 100 µM; 0.01% Triton X-100, no Tween-20; 10 min preincubation

| Compound | % ZIKV NS2B/NS3pro Inhibition (100 µM) 0.01% Triton |
| --- | --- |
| Cc1ccc(S(=O)(=O)Nc2ccccc2C(=O)Nc2nc3ccccc3[nH]2)cc1 [Compound 7] | 12 ± 17% |
| COc1cccc2nc(C(=O)c3ccccc3NS(=O)(=O)c3ccc(F)c(C)c3)[nH]c12 [Compound 12] | 5 ± 7% |

same assay, conditions: compound 100 µM; 10 min pre-incubation with BSA 1 mg/mL before enzyme

| Compound | % ZIKV NS2B/NS3pro Inhibition (100 µM) BSA |
| --- | --- |
| Cc1ccc(S(=O)(=O)Nc2ccccc2C(=O)Nc2nc3ccccc3[nH]2)cc1 [Compound 7] | 89 ± 7% |
| COc1cccc2nc(C(=O)c3ccccc3NS(=O)(=O)c3ccc(F)c(C)c3)[nH]c12 [Compound 12] | 87 ± 18% |

same assay, conditions: compound 100 µM; 10 min preincubation with enzyme; 0.005% Tween-20; enzyme 0.2 nM

| Compound | % ZIKV NS2B/NS3pro Inhibition (100 µM) With Preincubation |
| --- | --- |
| Cc1ccc(S(=O)(=O)Nc2ccccc2C(=O)Nc2nc3ccccc3[nH]2)cc1 [Compound 7] | 100 ± 0% |
| COc1cccc2nc(C(=O)c3ccccc3NS(=O)(=O)c3ccc(F)c(C)c3)[nH]c12 [Compound 12] | 100 ± 0% |

same assay, conditions: compound 100 µM; no preincubation; 0.005% Tween-20

| Compound | % ZIKV NS2B/NS3pro Inhibition (100 µM) Without Preincubation |
| --- | --- |
| O=C(Nc1nc2cnccc2[nH]1)c1ccccc1NS(=O)(=O)c1ccc(F)cc1 [Compound 3] | 56 ± 11% |
| Cc1ccc(S(=O)(=O)Nc2ccccc2C(=O)Nc2nc3ccccc3[nH]2)cc1 [Compound 7] | 90 ± 8% |
| COc1cccc2nc(C(=O)c3ccccc3NS(=O)(=O)c3ccc(F)c(C)c3)[nH]c12 [Compound 12] | 91 ± 9% |

same assay, conditions: compound at 10 µM (footnote a); no preincubation; 0.005% Tween-20

| Compound | % ZIKV NS2B/NS3pro Inhibition (100 µM) Without Preincubation |
| --- | --- |
| COc1cccc2sc(NC(=O)c3ccccc3CS(=O)(=O)c3ccccc3)nc12 [Compound 8] | 15 ± 11% |

same assay, conditions: compound at 10 µM (footnote a, solubility limit); 10 min preincubation; 0.005% Tween-20; enzyme 0.2 nM

| Compound | % ZIKV NS2B/NS3pro Inhibition (100 µM) With Preincubation |
| --- | --- |
| COc1cccc2sc(NC(=O)c3ccccc3CS(=O)(=O)c3ccccc3)nc12 [Compound 8] | 8 ± 8% |

same assay, conditions: from dose-response curve, replica 1

| Compound | Hill Slope Replica 1 |
| --- | --- |
| Cc1ccc(S(=O)(=O)Nc2ccccc2C(=O)Nc2nc3ccccc3[nH]2)cc1 [Compound 7] | 2.014 |
| COc1cccc2nc(C(=O)c3ccccc3NS(=O)(=O)c3ccc(F)c(C)c3)[nH]c12 [Compound 12] | 1.517 |

same assay, conditions: from dose-response curve, replica 2

| Compound | Hill Slope Replica 2 |
| --- | --- |
| Cc1ccc(S(=O)(=O)Nc2ccccc2C(=O)Nc2nc3ccccc3[nH]2)cc1 [Compound 7] | 1.056 |
| COc1cccc2nc(C(=O)c3ccccc3NS(=O)(=O)c3ccc(F)c(C)c3)[nH]c12 [Compound 12] | 1.742 |

same assay, conditions: one value per independent assay (two curves per compound); read-out: IC50 of the individual curves for NS2B-NS3pro inhibitors (Figure 3)

| Compound | IC50 |
| --- | --- |
| COc1cccc2nc(C(=O)c3ccccc3NS(=O)(=O)c3ccc(F)c(C)c3)[nH]c12 [Compound 12] | 6 µM |

biological target: T1, ZIKV NS2B-NS3pro; assay: not given; settings: parallel study; ref [54]; cited from earlier work

| Compound | cause of inhibition after resynthesis |
| --- | --- |
| COc1ccc(S(=O)(=O)Nc2ccccc2C(=O)Nc2nc3ccccc3s2)cc1 [LEE-2] | due to colloidal aggregation |
| COc1ccc(Cl)c2sc(NC(=O)c3ccccc3NS(=O)(=O)c3ccc(C)cc3)nc12 [LEE-3] | due to colloidal aggregation |

same assay, conditions: ref [33]; cited from earlier work

| Compound | mode of inhibition |
| --- | --- |
| COc1ccc(S(=O)(=O)Nc2ccccc2C(=O)Nc2nc3ccccc3s2)cc1 [LEE-2] | competitive inhibitors |
| COc1ccc(Cl)c2sc(NC(=O)c3ccccc3NS(=O)(=O)c3ccc(C)cc3)nc12 [LEE-3] | competitive inhibitors |

tested on: Vero (ATCC CCL-81) cell line; assay: not given; design: method as in Serafim et al. [64]; settings: comparison control; ref Serafim et al. [64]; cited from earlier work

| Compound | CC50 |
| --- | --- |
| NC(=O)c1ncn([C@@H]2O[C@H](CO)[C@@H](O)[C@H]2O)n1 [Ribavirin] | > 100 µM |

tested on: ZIKV (PE243); assay: not given; design: method as in Serafim et al. [64]; settings: comparison control, ref Serafim et al. [64]; cited from earlier work

| Compound | EC50 |
| --- | --- |
| NC(=O)c1ncn([C@@H]2O[C@H](CO)[C@@H](O)[C@H]2O)n1 [Ribavirin] | 4.1 ± 0.35 µM |
